From patent US8598153B2, “Method of treatment using fatty acid synthesis inhibitors” (Merck Sharp & Dohme Corp., priority 2006, dated 2013)

Legend:
[1] = system: fatty acid synthesis in rat hepatocytes; experiment: Fatty acid synthesis in rat hepatocytes in vitro (C14-acetate incorporation); assay type: cell-based; conditions: Hepatocyte, primary rat hepatocytes, read-out: Rat IC50 μM, fatty acid synthesis inhibitory activity
Excerpt: 115: 1030-1038 (2003) with modifications. […] The plates were gassed and sealed.

[2] = biological target: T1, human FAS (Homo sapiens, UniProt P49327); experiment: FAS inhibitory activity in cell free Flashplate assay (formation of 3H-palmitate), human FAS; assay type: biochemical; conditions: human FAS from SkBr3 cells, cell free flash plate assay
T1 construct: Cell extracts were processed by ammonium sulfate precipitation followed by DEAE chromatography; endogenous in cells; host or cells: SkBr3 human breast cancer cells (endogenous FAS, partially purified)
T1 sequence (P49327 whole entry): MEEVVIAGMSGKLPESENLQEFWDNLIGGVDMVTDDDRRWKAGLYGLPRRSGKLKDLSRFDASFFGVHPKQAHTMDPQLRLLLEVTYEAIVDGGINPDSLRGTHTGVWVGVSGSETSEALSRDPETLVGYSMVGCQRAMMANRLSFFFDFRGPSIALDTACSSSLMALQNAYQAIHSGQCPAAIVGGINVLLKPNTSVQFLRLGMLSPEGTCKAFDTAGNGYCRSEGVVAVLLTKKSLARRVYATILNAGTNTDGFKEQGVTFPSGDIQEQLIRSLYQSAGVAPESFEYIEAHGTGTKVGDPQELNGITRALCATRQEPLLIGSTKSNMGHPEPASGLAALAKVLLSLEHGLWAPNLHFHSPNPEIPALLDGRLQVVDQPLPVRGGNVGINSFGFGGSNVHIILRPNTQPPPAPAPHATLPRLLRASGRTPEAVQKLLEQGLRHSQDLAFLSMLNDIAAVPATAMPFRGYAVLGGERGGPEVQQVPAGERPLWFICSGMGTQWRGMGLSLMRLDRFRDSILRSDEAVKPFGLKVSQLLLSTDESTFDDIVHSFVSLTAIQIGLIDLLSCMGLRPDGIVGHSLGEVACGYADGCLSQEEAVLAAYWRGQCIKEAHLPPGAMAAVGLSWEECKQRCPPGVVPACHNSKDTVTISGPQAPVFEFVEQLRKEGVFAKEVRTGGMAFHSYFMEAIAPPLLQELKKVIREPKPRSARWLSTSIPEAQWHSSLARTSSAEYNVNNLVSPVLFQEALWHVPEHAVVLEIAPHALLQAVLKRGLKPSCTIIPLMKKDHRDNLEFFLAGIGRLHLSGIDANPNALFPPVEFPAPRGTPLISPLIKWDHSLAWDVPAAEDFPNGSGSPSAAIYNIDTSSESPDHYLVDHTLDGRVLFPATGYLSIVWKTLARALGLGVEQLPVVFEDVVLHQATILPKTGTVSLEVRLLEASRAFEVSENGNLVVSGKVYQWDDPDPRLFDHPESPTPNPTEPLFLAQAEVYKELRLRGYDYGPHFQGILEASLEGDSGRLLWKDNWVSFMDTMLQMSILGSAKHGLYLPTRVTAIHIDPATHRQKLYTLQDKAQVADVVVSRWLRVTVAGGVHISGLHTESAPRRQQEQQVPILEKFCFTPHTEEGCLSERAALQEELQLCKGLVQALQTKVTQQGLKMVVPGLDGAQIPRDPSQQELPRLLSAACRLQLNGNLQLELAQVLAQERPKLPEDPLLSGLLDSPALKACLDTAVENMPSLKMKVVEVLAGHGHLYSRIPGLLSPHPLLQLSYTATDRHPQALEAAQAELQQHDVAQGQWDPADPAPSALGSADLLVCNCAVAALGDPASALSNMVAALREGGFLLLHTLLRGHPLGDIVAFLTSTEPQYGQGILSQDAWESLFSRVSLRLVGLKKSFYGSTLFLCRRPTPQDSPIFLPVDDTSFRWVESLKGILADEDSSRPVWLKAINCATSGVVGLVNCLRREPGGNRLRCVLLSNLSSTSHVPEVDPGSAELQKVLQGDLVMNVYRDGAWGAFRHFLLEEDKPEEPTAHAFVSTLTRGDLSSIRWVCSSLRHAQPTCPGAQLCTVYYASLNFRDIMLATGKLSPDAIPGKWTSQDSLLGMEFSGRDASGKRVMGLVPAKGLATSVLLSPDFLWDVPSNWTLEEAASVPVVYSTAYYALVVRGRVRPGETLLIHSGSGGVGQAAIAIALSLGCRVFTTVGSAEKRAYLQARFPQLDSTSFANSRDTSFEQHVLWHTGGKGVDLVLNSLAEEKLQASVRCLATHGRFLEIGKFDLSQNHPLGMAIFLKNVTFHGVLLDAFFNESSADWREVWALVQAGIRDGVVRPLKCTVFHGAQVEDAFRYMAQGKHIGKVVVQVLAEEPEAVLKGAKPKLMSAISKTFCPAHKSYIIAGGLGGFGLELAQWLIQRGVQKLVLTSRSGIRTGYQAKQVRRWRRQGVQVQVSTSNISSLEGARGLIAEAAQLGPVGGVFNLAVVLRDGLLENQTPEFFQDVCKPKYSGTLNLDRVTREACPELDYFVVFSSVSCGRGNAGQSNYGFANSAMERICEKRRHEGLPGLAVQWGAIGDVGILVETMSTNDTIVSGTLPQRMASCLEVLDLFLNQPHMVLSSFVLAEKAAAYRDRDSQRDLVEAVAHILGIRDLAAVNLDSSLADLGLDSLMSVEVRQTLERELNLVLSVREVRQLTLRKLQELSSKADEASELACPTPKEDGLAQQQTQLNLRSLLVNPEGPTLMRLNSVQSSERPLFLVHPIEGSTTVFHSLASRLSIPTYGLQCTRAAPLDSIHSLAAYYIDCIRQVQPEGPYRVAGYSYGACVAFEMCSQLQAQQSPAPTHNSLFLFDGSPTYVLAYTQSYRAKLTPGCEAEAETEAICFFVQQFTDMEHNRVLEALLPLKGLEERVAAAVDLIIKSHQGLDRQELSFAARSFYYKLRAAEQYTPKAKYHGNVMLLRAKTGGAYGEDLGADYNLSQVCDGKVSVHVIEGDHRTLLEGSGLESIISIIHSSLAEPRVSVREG
Procedure: (§1) Compounds with formula I (platensimycin) and II (platencin) were titrated against human or rat FAS using the Flashplate assay. Animal FAS activity was assayed radiochemically for the formation of ^3H-palmitate. The assay buffer contained 200 mM KPi, pH 7, 2 mM EDTA, 2.5 mM DTT, 5 μM Acetyl CoA (^3H-acetyl-CoA, Specific Activity=0.3 Ci/mmole), 21 μM malonyl-CoA, and 20 uM NADPH in a final reaction volume of 200 μl Assays are performed in 96-well Phospholipid coated FlashPlates (Perkin Elmer). The reaction was initiated by adding FAS (0.17 mUnits/well, 1 Unit=1μ mole of NADPH consumed/minute). The plates were incubated at RT for 5 minutes before adding 6 μl of perchloric acid to stop the reaction. The plates sat at RT for at least 3 hours, preferably overnight, before counting. Background was determined from wells without malonyl CoA. The source of Human FAS was SkBr3 cells. Cell extracts were processed by ammonium sulfate precipitation followed by DEAE chromatography essentially as described by Jayakumar et al., 1995 (Jayakumar A, Tai M H, Huang W Y, al-Feel W, Hsu M, Abu-Elheiga L, Chirala S S, Wakil S J. Human fatty acid synthase: properties and molecular cloning. Proc Natl Acad Sci USA. 1995 Sep. 12; 92(19):8695-9). […]

[3] = system: fatty acid oxidation in rat hepatocytes
Procedure: Fatty acid oxidation in the hepatocytes was determined the conversion of C14-oleic acid to soluble acid products as described (Jiang G, Li Z, Liu F, Ellsworth K, Dallas-Yang Q, Wu M, Ronan J, Essau C, Murphy C, Szalkowski D, Bergeron R, Doebber T and Zhang B. Prevention of obesity in mice by antisense oligonucleotide inhibitors of stearoyl-CoA desaturase-1. J. Clin. Invest. 115: 1030-1038 (2003); Mannaerts G P, Debeer L J, Thomas J, ans DeSchepper P J. Mitochondrial and proxisomal fatty acid oxidation in liver homogenates and isolated hepatocytes from control and clofibrate-treated rats. J. Biol. Chem. 254:4585-4595 (1979)) with modifications. Hepatocytes seeded overnight and washed twice with PBS and then pre-incubated with compounds in 5 μl of DMSO in 2 ml medium199 plus 0.25% bovine serum albumin for 60 min. C14-oleic acid 0.25 μCi (NEN) was added to each well. The plates were gassed and sealed. After one hr incubation, 1 ml of medium was removed, mixed with 100 μl of 10% BSA and then 100 μl 60% HClO4. After centrifugation, 1 ml of the solution was counted the level of soluble acid products.

[4] = biological target: T2, rat FAS (Rattus norvegicus, UniProt P12785); experiment: FAS inhibitory activity in cell free Flashplate assay (formation of 3H-palmitate), rat FAS; assay type: biochemical; conditions: rat liver FAS, cell free flash plate assay
T2 construct: The clarified supernatant was fractionated by ammonium sulfate precipitation; from tissue; host or cells: rat liver (fasted and high carbohydrate re-fed rats)
T2 sequence (P12785 whole entry): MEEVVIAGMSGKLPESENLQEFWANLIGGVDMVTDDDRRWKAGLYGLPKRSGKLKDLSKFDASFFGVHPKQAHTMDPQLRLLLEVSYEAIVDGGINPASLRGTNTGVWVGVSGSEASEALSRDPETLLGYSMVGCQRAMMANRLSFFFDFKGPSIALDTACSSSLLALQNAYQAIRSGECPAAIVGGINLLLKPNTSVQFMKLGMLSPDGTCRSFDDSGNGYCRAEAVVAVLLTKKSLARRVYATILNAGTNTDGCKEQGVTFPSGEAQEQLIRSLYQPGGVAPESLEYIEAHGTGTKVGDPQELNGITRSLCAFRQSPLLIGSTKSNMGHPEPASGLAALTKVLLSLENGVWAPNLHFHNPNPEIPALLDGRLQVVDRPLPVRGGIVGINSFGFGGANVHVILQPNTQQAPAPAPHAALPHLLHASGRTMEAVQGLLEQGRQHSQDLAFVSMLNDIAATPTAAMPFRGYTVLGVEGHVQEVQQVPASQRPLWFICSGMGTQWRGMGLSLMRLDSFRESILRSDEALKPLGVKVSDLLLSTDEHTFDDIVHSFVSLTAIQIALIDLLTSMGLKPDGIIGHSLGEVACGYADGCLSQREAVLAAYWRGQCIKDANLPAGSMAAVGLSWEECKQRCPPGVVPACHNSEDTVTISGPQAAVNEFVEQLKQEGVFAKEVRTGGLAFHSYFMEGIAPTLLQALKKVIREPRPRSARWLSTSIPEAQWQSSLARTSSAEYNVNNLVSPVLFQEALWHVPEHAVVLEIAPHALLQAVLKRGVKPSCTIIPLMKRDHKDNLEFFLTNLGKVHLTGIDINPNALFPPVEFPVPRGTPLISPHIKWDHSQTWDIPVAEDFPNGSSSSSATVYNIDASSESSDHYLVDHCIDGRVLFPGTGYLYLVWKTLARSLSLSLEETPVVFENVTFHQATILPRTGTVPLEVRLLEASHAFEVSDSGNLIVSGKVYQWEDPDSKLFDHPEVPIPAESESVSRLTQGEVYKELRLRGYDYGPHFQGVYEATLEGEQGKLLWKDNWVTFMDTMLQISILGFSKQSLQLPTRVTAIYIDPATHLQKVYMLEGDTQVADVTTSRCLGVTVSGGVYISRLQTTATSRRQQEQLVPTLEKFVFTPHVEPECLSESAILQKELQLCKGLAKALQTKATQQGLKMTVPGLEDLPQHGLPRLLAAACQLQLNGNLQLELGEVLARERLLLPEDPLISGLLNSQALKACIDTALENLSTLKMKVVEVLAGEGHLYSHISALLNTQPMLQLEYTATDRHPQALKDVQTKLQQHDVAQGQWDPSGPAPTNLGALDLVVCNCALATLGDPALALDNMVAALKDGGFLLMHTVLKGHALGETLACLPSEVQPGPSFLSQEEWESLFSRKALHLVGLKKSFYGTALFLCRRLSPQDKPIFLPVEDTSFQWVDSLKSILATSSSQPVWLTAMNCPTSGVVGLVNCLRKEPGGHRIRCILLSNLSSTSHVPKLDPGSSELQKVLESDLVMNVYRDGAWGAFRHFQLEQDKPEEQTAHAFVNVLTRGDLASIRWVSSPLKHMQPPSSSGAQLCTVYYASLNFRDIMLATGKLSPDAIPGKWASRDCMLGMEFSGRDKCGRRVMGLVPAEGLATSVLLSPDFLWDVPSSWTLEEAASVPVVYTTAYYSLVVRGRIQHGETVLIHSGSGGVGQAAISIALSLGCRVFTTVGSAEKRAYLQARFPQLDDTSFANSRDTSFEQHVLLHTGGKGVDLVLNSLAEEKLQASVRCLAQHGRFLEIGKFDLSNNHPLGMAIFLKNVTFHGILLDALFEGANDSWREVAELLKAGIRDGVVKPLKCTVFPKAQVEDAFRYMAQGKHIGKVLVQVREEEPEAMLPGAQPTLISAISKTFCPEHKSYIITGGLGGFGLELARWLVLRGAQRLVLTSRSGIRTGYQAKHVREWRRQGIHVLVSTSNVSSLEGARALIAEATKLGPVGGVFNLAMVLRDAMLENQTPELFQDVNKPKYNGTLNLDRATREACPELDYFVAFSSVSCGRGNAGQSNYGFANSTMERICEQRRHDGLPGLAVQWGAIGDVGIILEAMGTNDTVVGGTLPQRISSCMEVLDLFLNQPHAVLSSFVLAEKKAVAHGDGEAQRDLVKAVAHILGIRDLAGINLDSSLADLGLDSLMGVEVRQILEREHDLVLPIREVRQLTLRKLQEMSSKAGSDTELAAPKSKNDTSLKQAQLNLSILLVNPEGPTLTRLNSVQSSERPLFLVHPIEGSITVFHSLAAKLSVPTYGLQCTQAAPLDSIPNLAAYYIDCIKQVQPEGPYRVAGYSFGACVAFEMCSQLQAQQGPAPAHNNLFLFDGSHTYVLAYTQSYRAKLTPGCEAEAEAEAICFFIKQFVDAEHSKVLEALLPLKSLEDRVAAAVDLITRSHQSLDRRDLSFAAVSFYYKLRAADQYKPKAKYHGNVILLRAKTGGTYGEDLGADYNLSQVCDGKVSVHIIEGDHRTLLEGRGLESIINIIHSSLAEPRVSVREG
Procedure: as §1

Structure (SMILES)	IC50 [1]	IC50 [2]	Inhibition of Oxidation of Fatty Acids, Rat Hepatocyte (% of control at 10 uM) [3]	IC50 [4]
C=C1C[C@@]23C=CC(=O)[C@@](C)(CCC(=O)Nc4c(O)ccc(C(=O)O)c4O)[C@@H]2C[C@@H]1CC3 [Formula II, platencin]	3.24 µM	6.3 µM	66.0 % of control	–
C[C@]12C[C@@]34C=CC(=O)[C@@](C)(CCC(=O)Nc5c(O)ccc(C(=O)O)c5O)C3[C@H](CC1C4)O2 (stereo partly shown) [Formula I, platensimycin]	0.093 µM	0.3 µM	59.7 % of control	0.18 µM
